Measured values from patent US5401647A, “Method of preparing Limulus amoebocyte lysate” (Seikagaku Kogyo Kabushiki Kaisha (Seikagaku Corporation), priority 1990, dated 1995).

Biological target: T1, Limulus amoebocyte lysate factor G (Tachypleus tridentatus, UniProt Q27082)
T1 construct: Prepared from Japanese horseshoe crab, T. tridentatus; from tissue; host or cells: amoebocyte (hemocyte) lysate of the Japanese horseshoe crab T. tridentatus, factor G fraction
T1 sequence (Q27082 20-673): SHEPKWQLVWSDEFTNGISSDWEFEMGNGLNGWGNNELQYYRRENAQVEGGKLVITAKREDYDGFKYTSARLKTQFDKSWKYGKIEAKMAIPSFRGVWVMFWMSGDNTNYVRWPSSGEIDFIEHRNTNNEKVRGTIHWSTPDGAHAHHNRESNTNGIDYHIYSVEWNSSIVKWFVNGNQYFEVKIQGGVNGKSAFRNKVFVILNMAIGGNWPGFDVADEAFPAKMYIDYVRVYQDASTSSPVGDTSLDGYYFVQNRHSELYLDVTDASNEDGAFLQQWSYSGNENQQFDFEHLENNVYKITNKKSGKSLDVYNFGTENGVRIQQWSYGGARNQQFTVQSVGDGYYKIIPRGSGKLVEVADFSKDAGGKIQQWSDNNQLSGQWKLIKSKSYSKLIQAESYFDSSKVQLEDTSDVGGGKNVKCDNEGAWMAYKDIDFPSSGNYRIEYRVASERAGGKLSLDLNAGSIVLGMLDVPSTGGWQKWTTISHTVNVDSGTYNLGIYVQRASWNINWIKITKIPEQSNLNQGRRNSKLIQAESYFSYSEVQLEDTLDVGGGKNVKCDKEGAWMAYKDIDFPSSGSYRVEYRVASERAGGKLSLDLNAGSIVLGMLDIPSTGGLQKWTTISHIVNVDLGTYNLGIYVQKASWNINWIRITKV
T1 sequence (Q27083 32-309 partner): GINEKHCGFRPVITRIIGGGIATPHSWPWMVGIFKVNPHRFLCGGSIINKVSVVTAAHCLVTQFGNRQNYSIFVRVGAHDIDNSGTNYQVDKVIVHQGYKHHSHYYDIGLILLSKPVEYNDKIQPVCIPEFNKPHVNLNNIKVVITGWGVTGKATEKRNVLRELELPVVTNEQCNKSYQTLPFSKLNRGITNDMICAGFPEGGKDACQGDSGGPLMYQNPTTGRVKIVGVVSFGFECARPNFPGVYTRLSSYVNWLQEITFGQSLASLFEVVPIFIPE
Assay: Activation titer determination method of factor G activation inhibiting substance (GI)
Format: biochemical, T. tridentatus
Conditions: 10 pg GA (No. 106); 37° C., 30 minutes; GI amount causing 100% inhibition of factor G activation = 100 units
Method: The factor G activation inhibitory titer was measured according to the following activation titer determination method of factor G activation inhibiting substance and represented as units per mg. Activation titer determination method of factor G activation inhibiting substance (hereinafter, sometimes abbreviated as GI)
A 200 μl portion of a reaction mixture has the following composition. […]
After incubating the above-described reaction mixture at 37° C. for 30 minutes, 0.5 ml each of 0.04% sodium nitrite (0.48M HCl solution), 0.3% ammonium sulfamate and 0.07% N-1-naphthylethylenediamine dihydrochloride was added to the reaction mixture to effect coloration by diazo-coupling. The amount of released pNA was determined by measuring an absorbance at 545 nm (A545). GI activity was calculated according to the following equation; [formula]
Under these conditions, the GI amount which causes 100% inhibition of an activation of factor G by GA is defined as 100 units.
(Note 1) Water-insoluble samples are dissolved in 0.3M NaOH and neutralized with an equal volume of 0.3M HCl.
(Note 2) GPC fractionation-purified product of the curdian sonicated product prepared in the above-described Preparation Example 5 (Table-2, No. 106, molecular weight 216,000).
(Note 3) Prepared from Japanese horseshoe crab, T. tridentatus according to the article [T. Obayasi et al., Clin. Chim. Acta., 149, 55-65 (1985)].

Compound	Factor G Activation Inhibitory Titer
Partially sulfated laminaran [compound 44]	117,000 unit/mg
Partially methylated (1→3)-β-D-glucan [compound 43]	93,300 unit/mg
Partially carboxymethylated (1→3)-β-D-glucan (DS = 0.03) GPC fraction 2 [compound 40]	91,200 unit/mg
Partially carboxymethylated (1→3)-β-D-glucan (DS = 0.03) GPC fraction 1 [compound 39]	117,000 unit/mg
Partially carboxymethylated laminaran [compound 42]	3,630,000 unit/mg
OC[C@H]1O[C@@H](O[C@@H]2[C@@H](O)[C@H](O[C@@H]3[C@@H](O)[C@H](O[C@@H]4[C@@H](O)[C@H](O[C@H]5[C@H](O)[C@@H](CO)OC(O)[C@@H]5O)O[C@H](CO)[C@H]4O)O[C@H](CO)[C@H]3O)O[C@H](CO)[C@H]2O)[C@H](O)[C@@H](O)[C@@H]1O (some centres unmarked) [compound 8, Laminaripentaose]	39,800 unit/mg
OC[C@H]1O[C@@H](O[C@H]2[C@H](O)[C@@H](CO)OC(O)[C@@H]2O)[C@H](O)[C@@H](O)[C@@H]1O (some centres unmarked) [compound 5, Laminaribiose]	214 unit/mg
OC[C@H]1O[C@@H](O[C@@H]2[C@@H](O)[C@H](O[C@@H]3[C@@H](O)[C@H](O[C@@H]4[C@@H](O)[C@H](O[C@@H]5[C@@H](O)[C@H](O[C@H]6[C@H](O)[C@@H](CO)OC(O)[C@@H]6O)O[C@H](CO)[C@H]5O)O[C@H](CO)[C@H]4O)O[C@H](CO)[C@H]3O)O[C@H](CO)[C@H]2O)[C@H](O)[C@@H](O)[C@@H]1O (some centres unmarked) [compound 9, Laminarihexaose]	55,000 unit/mg
OC[C@H]1OC(O)[C@H](O)[C@@H](O)[C@@H]1O (some centres unmarked) [compound 108, Glucose]	< 100 unit/mg
OC[C@H]1O[C@@H](O[C@@H]2[C@@H](O)[C@H](O[C@@H]3[C@@H](O)[C@H](O[C@@H]4[C@@H](O)[C@H](O[C@@H]5[C@@H](O)[C@H](O[C@@H]6[C@@H](O)[C@H](O[C@H]7[C@H](O)[C@@H](CO)OC(O)[C@@H]7O)O[C@H](CO)[C@H]6O)O[C@H](CO)[C@H]5O)O[C@H](CO)[C@H]4O)O[C@H](CO)[C@H]3O)O[C@H](CO)[C@H]2O)[C@H](O)[C@@H](O)[C@@H]1O (some centres unmarked) [compound 10, Laminariheptaose]	103,000 unit/mg
OC[C@H]1O[C@@H](O[C@@H]2[C@@H](O)[C@H](O[C@@H]3[C@@H](O)[C@H](O[C@H]4[C@H](O)[C@@H](CO)OC(O)[C@@H]4O)O[C@H](CO)[C@H]3O)O[C@H](CO)[C@H]2O)[C@H](O)[C@@H](O)[C@@H]1O (some centres unmarked) [compound 7, Laminaritetraose]	20,000 unit/mg
OC[C@H]1O[C@@H](O[C@@H]2[C@@H](O)[C@H](O[C@H]3[C@H](O)[C@@H](CO)OC(O)[C@@H]3O)O[C@H](CO)[C@H]2O)[C@H](O)[C@@H](O)[C@@H]1O (some centres unmarked) [compound 6, Laminaritriose]	4,670 unit/mg
Partially carboxymethylated (1→3)-β-D-glucan (DS = 0.03) GPC fraction 3 [Sample No. 41]	80,000 unit/mg
Partially carboxymethylated (1→3)-β-D-glucan (DS = 1.20) [compound 107]	< 100 unit/mg
